Test results taken from US20100010098A1, “POLYMORPHS OF RASAGILINE HYDROCHLORIDE” (priority 2008, published 2010).
Where a name gives a salt, the structure may show the parent alone. Read-outs that look alike come from different tables or passages of the source.

Experiments:
[1] = after storage for 4 weeks at 55° C./90% relative humidity
[2] = solid state; suspension with a liquid; compared with Form I
Experimental: 9 mg of rasagiline HCl Form I was suspended in 0.15 ml 2-PrOH and stirred for 11 days at 70° C.
b) 50 mg of rasagiline HCl Form I was suspended in 0.23 ml 2-PrOH and stirred for 7 days at 5° C.
20 mg of Form II was added to a suspension of 1.49 g Form III in 6 ml 2-PrOH. After 4 days solid material was isolated by filtration, washed with diethyl ether and was dried overnight at 40° C. in vacuo.

Compound: C#CCN[C@@H]1CCc2ccccc21 [Form II rasagiline hydrochloride, rasagiline hydrochloride]
- Chemical Purity (HPLC) ([1]; hydrochloride): 100%
- Color Change ([1]; hydrochloride): No
- Water uptake ([1]; hydrochloride): No
- relative stability of the polymorphic form [2]: more stable in the solid state than the crystalline Form I

Compound: C#CCN[C@@H]1CCc2ccccc21 [rasagiline mesylate, reference compound]
- Chemical Purity (HPLC) [1]: 97.1%
- Color Change [1]: Yes, brown color
- Water uptake [1]: Yes
